Common to all, as to test: NCI anticancer screen, dose series, 48 h
Experiment [1] deals with A549 NSCLC.
For experiment [2], the system named is ACHN renal.
In experiment [3] the test system is COLO 205 colon.
Experiment [4] relates to HCT-116 colon.
Experiment [5] has as its system LOX IMVI melanoma.
Experiment [6] deals with NCI-H460 lung.
In experiment [7] the test system is OVCAR-8 ovarian.
In experiment [8] the test system is RXF 393 renal.

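Interpolation was linear, between the two tested concentrations surrounding the appropriate level; five concentrations were tested over 48 hours in 96-well plates. GI50 is the concentration that inhibits growth by half. The concentration for full growth arrest is given as TGI.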

As for `COc1ccc(C2=CC(c3ccc4c(c3)OCO4)c3c(c4ccccc4oc3=O)O2)cc1OC` (centres undefined), the TGI in experiment [1] was more than 100 µM; in experiment [2], more than 100 µM; in experiment [3], more than 22.6 µM; in experiment [4] it was more than 100 µM; in experiment [5], more than 100 µM; in experiment [6], more than 100 µM. Moreover, the TGI in experiment [7] and in experiment [8] was more than 100 µM throughout.
`COc1cc(CSc2nc3ccc(C)cc3c(=O)n2-c2ccccc2)cc(OC)c1OC`: the GI50 was 1.59 µM in experiment [1]; 4.78 µM in experiment [2]; 0.576 µM in experiment [3]; 1.03 µM in experiment [4]; 4.13 µM in experiment [5]; 2.3 µM in experiment [6]. Besides, the GI50 in experiment [7] is 4.51 µM; in experiment [8] it was 1.1 µM. The TGI in experiment [1] was more than 100 µM; in experiment [2], more than 100 µM; in experiment [3], 3.97 µM; in experiment [4], more than 100 µM; in experiment [5] it was more than 100 µM; in experiment [6] it was more than 100 µM. In addition, the TGI was more than 100 µM in experiment [7] and more than 25.5 µM in experiment [8].
Turning to `Cc1nn2c(/C=C3\C(=O)Nc4ccc(Cl)cc43)c(C)nc2s1`, the GI50 in experiment [1] was 93.9 µM; in experiment [2] it was 72.9 µM; in experiment [3] it was 13.3 µM; in experiment [4], 30.2 µM; in experiment [5] it was 83.1 µM; in experiment [6] it was 16.3 µM. Also, the GI50 in experiment [7] is 84.3 µM; in experiment [8], more than 100 µM. Besides, the TGI in experiment [1], in experiment [2], in experiment [3], in experiment [4], in experiment [5] and in experiment [6] was more than 100 µM throughout. Also, the TGI in experiment [7] and in experiment [8] was more than 100 µM each time.
On to `O=C([CH-]C(=O)c1ccccc1)c1ccccc1.O=C([CH-]C(=O)c1ccccc1)c1ccccc1.[La+3].[OH-].[OH3+]`, for which the GI50 is 20.6 µM in experiment [1]; 19.6 µM in experiment [2]; 22.6 µM in experiment [3]; 7.89 µM in experiment [4]; 13.5 µM in experiment [5]; 8.66 µM in experiment [6]. Moreover, the GI50 is 6.67 µM in experiment [7] and 2.99 µM in experiment [8]. Further, the TGI in experiment [1] was 55.2 µM; in experiment [2], more than 100 µM; in experiment [3], 61.5 µM; in experiment [4] it was 29.6 µM; in experiment [5], 37.1 µM; in experiment [6], more than 100 µM. Moreover, the TGI in experiment [7] stood at 65.4 µM; in experiment [8] it was 29.6 µM.
Turning to `C=C1CCC2C3(C)COC(c4ccc(N(C)C)cc4)OC3CCC2(C)C1C/C=C1/C(=O)OCC1O` (centres undefined), the GI50 in experiment [1] was 4.73 µM; in experiment [2], 9.16 µM; in experiment [3] it was 3.54 µM; in experiment [4], 1.62 µM; in experiment [5], 1.59 µM; in experiment [6] it was 4.1 µM. Further, the GI50 in experiment [7] is 3.78 µM; in experiment [8], 1.97 µM. The TGI was determined as 17.3 µM in experiment [1]; 21.4 µM in experiment [2]; 12.7 µM in experiment [3]; 3.05 µM in experiment [4]; 3.5 µM in experiment [5]; 16.5 µM in experiment [6]. Moreover, the TGI amounted to 18.9 µM in experiment [7] and 4.06 µM in experiment [8].
As to `CC(C)(C)n1cc(-c2ccnc(NCCCNS(=O)(=O)c3ccc(C(F)(F)F)cc3)c2)c(-c2cccc(O)c2)n1`, the GI50 is 2.02 µM in experiment [1]; 1.88 µM in experiment [2]; 1.95 µM in experiment [3]; 1.55 µM in experiment [4]; 1.72 µM in experiment [5]; 1.86 µM in experiment [6]. Besides, the GI50 is 2.46 µM in experiment [7] and 1.46 µM in experiment [8]. Besides, the TGI is 4.58 µM in experiment [1]; 3.54 µM in experiment [2]; 3.78 µM in experiment [3]; 3.08 µM in experiment [4]; 3.09 µM in experiment [5]; 3.57 µM in experiment [6]. The TGI in experiment [7] came out at 6.44 µM; in experiment [8] it was 2.89 µM.
Regarding `O=[N+]([O-])O.[Cu+2].[NH-]CC[NH-].[NH-]CC[NH-]`, the GI50 in experiment [1], in experiment [2], in experiment [3], in experiment [4], in experiment [5] and in experiment [6] was more than 10 µM each time. The GI50 in experiment [7] and in experiment [8] was more than 10 µM throughout. Further, the TGI in experiment [1], in experiment [2], in experiment [3], in experiment [4], in experiment [5] and in experiment [6] was more than 10 µM in each case. The TGI in experiment [7] and in experiment [8] was more than 10 µM in each case.
In the case of `O=C(O)CNC(=O)c1ccc(-c2ccccc2)cc1`, the TGI in experiment [1], in experiment [2], in experiment [3], in experiment [4], in experiment [5] and in experiment [6] was more than 100 µM throughout. In addition, the TGI in experiment [7] and in experiment [8] was more than 100 µM each time.
In the case of `C=C(C)C(=O)O[C@H]1CC(=C)[C@@H]2C[C@H](O)[C@](O)(CCl)[C@@H]2[C@H]2OC(=O)C(=C)[C@@H]21`, the GI50 was 18.4 µM in experiment [1]; 1.82 µM in experiment [2]; 1.87 µM in experiment [3]; 1.67 µM in experiment [4]; 1.8 µM in experiment [5]; 10.2 µM in experiment [6]. The values for the GI50 in experiment [7] and in experiment [8] were 3.24 µM and 1.95 µM, respectively. For the same compound, the TGI in experiment [1] worked out at 38.2 µM; in experiment [2], 3.31 µM; in experiment [3], 3.66 µM; in experiment [4] it was 3.19 µM; in experiment [5], 3.39 µM; in experiment [6] it was 28.2 µM. Moreover, the TGI in experiment [7] was 12.8 µM; in experiment [8], 3.98 µM.
Regarding `COc1ccc(-c2nc(-c3nc4ccc(OC)cc4[nH]3)c3ccccn23)cc1`, the GI50 was 3.17 µM in experiment [1]; 3.57 µM in experiment [2]; 7.19 µM in experiment [3]; 3.63 µM in experiment [4]; 4.8 µM in experiment [5]; 3.23 µM in experiment [6]. Also, the GI50 in experiment [7] is 2.35 µM; in experiment [8] it was 24.2 µM. In addition, the TGI in experiment [1] is 46.7 µM; in experiment [2], 36.6 µM; in experiment [3], 39.7 µM; in experiment [4], 13.1 µM; in experiment [5], 26 µM; in experiment [6] it was 14 µM. The TGI in experiment [7] was 7.6 µM; in experiment [8] it was more than 100 µM.

The values are drawn from PubChem BioAssay (NCI).
